Source: ChEMBL document CHEMBL1154175, “A dynamic target-based pharmacophoric model mapping the CD4 binding site on HIV-1 gp120 to identify new inhibitors of gp120-CD4 protein-protein interactions” (Bioorg Med Chem Lett, 2009)
Active and inactive are the calls of the source. The rule behind the calls is not given here.

Experiments:
[1] = test system: Human immunodeficiency virus 1; experiment: Antiviral activity against HIV1 NL4-3 infected in human MT4 cells assessed as inhibition of virus-induced cytopathic effect after 5 days by MTT assay; format: functional, organism-based; conditions: Human immunodeficiency virus 1, NL4-3, MT4, 120 h
[2] = Cytotoxicity against human MT4 cells after 5 days by MTT assay; format: cell-based
[3] = test system: Human immunodeficiency virus 1; experiment: Antiviral activity against HIV1 NL4-3 with gp120 mutation […] infected in human MT4 cells assessed as inhibition of virus-induced cytopathic effect after 5 days by MTT assay; format: functional, organism-based; conditions: Human immunodeficiency virus 1, NL4-3, MT4, 120 h
[4] = test system: Human immunodeficiency virus 1; experiment: Antiviral activity against HIV1 NL4-3 infected in human MT4 cells assessed as capsid p24antigen production at 100 times EC50 treated before infection by ELISA; format: functional, organism-based
[5] = test system: Human immunodeficiency virus 1; experiment: Antiviral activity against HIV1 NL4-3 infected in human MT4 cells assessed as capsid p24antigen production at 100 times EC50 treated after infection by ELISA; format: functional, organism-based

SMILES | EC50 [1] [µM] | CC50 at 120 h [2] [µM] | EC50 [3] [µM] | Activity [4] | Activity [5]
COc1nc(N/N=C/c2ccc(-c3ccc(Cl)c([N+](=O)[O-])c3)o2)nc(N2CCOCC2)n1 | > 54 | > 54 |  |  | 
CCOC(=O)/C(=C\c1ccc(-c2cccc([N+](=O)[O-])c2)o1)C(=O)c1ccccc1 | 9 | > 64 | > 64 | Active | inactive
C=CCn1c(SCc2ccc(C(=O)NCCO)cc2)nc2ccccc2c1=O | > 63 | > 63 |  |  | 
C[C@@H]1CN(C(=O)c2ccccc2)CCN1C(=O)C(=O)c1cc2ccccc2[nH]1 | 0.024 | > 2.66 | > 2.66 |  | 
CCOC(=O)[C@H](Cc1ccc(/N=C/c2cc(Br)ccc2O)cc1)N1C(=O)c2ccccc2C1=O | 22 | > 48 | > 48 |  | 
COc1ccc(/C=N/c2nc3ccccc3n2Cc2ccc(Cl)cc2)cc1OC | > 62 | > 62 |  |  | 
